Measured values from publication PMC6152678, “In Vitro Comparative Study of the Inhibitory Effects of Mangiferin and Its Aglycone Norathyriol towards UDP-Glucuronosyl Transferase (UGT) Isoforms” (Molecules : A Journal of Synthetic Chemistry and Natural …, 2017).

Key:
[1] = target: T1, UGT2B15 (Homo sapiens, UniProt P54855); test: Inhibition of recombinant UGT-catalyzed 4-MU glucuronidation; assay type: biochemical; details: pH 7.4, probe 4-methylumbelliferone (4-MU), 250 μM, 100 μM compound, 4-MU probe substrate, negative = activation
T1 construct: purchased BD Gentest Corp. (Woburn, MA, USA); host or cells: baculovirus-infected insect cells
T1 sequence (P54855 24-530): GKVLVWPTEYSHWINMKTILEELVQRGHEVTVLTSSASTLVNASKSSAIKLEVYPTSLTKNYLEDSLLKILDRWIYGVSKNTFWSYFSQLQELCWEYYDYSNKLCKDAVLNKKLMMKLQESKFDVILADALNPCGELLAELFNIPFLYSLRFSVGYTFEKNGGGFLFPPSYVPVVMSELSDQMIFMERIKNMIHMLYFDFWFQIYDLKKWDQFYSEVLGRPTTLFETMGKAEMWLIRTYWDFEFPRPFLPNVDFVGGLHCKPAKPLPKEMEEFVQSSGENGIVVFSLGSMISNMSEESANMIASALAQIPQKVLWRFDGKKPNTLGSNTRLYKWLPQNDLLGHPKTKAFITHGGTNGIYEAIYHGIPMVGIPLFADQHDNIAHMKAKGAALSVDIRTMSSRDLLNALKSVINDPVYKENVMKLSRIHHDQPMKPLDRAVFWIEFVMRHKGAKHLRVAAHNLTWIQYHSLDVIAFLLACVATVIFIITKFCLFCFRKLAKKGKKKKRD
Experimental: (§1) Sigma-Aldrich (St Louis, MO, USA) provided the following constituents in the incubation mixture: 4-methylumbelliferone (4-MU), 4-methylumbelliferone-β-D-glucuronide (4-MUG), Tris-HCl, 7-hydroxycoumarin, and uridine-diphosphoglucuronic acid (UDPGA) (trisodium salt). All other compounds were of high-performance liquid chromatography (HPLC) grade or of the highest grade commercially available. For enzyme sources, recombinant UGT isoforms expressed in baculovirus-infected insect cells were purchased from BD Gentest Corp. (Woburn, MA, USA), including UGT1A1, 1A3, 1A6, 1A7, 1A8, 1A9, 1A10, 2B4, 2B7, 2B15, and 2B17.
(§2) 4-MU, a nonspecific probe substrate for all the UGT isoforms, was employed to investigate the inhibition of MEF and NIR towards the activity of UGT isoforms. The incubation and analytical methods have been previously described. […] MEF and NIR were dissolved in the DMSO to make a stock solution of 20 mM, and various concentrations of working solutions were prepared through dilution with DMSO. 4-MU was used as a non-selective substrate of UGTs. There was a 5-min pre-incubation step at 37 °C before the reaction was initiated by the addition of UDPGA. 4-MU and inhibitors were previously dissolved in DMSO, and the total concentration of DMSO was 1%. The reactions were continued at 37 °C for 120 min for UGT1A1, UGT1A3, UGT1A10, UGT2B4, UGT2B7, UGT2B15 and UGT2B17, 30 min for UGT1A6, UGT1A7, UGT1A8, and UGT1A9, respectively. Reactions were terminated by the addition of 100 μL acetonitrile with 7-hydroxycoumarin (100 μM) as internal standard. The incubation mixtures were then centrifuged at 12,000 r/min for 10 min. 2 μL supernatant was injected into the UPLC system for analysis. An ACQUITY UPLC System (Waters, Milford, MA, USA) equipped with UV detector was used to analyze the samples, and the separation of all the compounds were carried out using a ACQUITY UPLC® BEH C18 (2.1 × 100 mm, 1.7 μm Waters) at a flow rate of 0.2 mL/min and UV detector at 316 nm. The mobile phase was consisted of ultrapure water containing 0.5% formic acid (A) and acetonitrile (B). The following gradient condition was used: 0–3.5 min, 10–65% B; 3.5–4.0 min, 65% B; 4.0–9.0 min, 10% B. To calculate the standard curve 0.1–100 μM of 4-MUG was used through drawing the peak area ration of 4-MUG/internal standard towards the concentration range of 4-MUG. The curve was linear over this concentration range, with an r^2 value > 0.99.
(§3) The inhibition type and Kinetics were determined for the inhibition of NTR towards UGT1A3, UGT1A7 and UGT1A9. The glucuronidation velocity of 4-MU was determined at multiple concentrations of 4-MU and NTR. Dixon and Lineweaver–Burk plots were employed to determine the inhibition type, and the second plot of the slopes from the Lineweaver–Burk plot versus the compound concentrations was utilized to calculate the Ki value. The determination of IC50 was calculated using Probit analysis in SPSS11.5 (SPSS, Chicago, IL, USA). The Student’s t-test was adopted at a significance level of p < 0.05 to determine statistically significant differences among experimental groups.

[2] = target: T2, UGT1A6 (Homo sapiens, UniProt P19224); test: as above; assay type: biochemical; details: pH 7.4, probe 4-methylumbelliferone (4-MU), 110 μM, 100 μM compound, 4-MU probe substrate, negative = activation
T2 construct: purchased BD Gentest Corp. (Woburn, MA, USA); host or cells: baculovirus-infected insect cells
T2 sequence (P19224 27-532): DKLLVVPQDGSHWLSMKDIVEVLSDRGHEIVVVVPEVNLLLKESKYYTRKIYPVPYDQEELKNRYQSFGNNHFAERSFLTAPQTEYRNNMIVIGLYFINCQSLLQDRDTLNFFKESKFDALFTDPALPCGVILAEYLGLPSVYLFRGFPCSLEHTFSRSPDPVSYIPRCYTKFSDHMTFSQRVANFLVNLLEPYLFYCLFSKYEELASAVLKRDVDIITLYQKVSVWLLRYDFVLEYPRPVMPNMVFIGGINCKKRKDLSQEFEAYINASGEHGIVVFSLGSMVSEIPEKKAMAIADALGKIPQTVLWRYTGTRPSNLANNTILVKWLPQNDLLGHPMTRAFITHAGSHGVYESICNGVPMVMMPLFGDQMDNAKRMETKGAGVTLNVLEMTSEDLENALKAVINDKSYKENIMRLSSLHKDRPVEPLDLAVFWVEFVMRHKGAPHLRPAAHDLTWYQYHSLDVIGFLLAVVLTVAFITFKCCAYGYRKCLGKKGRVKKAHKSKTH
Experimental: as §1, §2, §3

inhibition at 120 min, 100 µM [1] [%] | inhibition at 30 min, 100 µM [2] [%] | SMILES
8.9 | 11.2 | O=c1c2cc(O)c(O)cc2oc2cc(O)c([C@@H]3O[C@H](CO)[C@@H](O)[C@H](O)[C@H]3O)c(O)c12 [MGF, 1,3,6,7-tetrahydroxyxanthone-C-2-β-D-glucoside]
46.3 | 46.2 | O=c1c2cc(O)c(O)cc2oc2cc(O)cc(O)c12 [NTR, 1,3,6,7-tetrahydroxyxanthone]
